Here are results for 4 compounds from article PMC7689835 (Journal of Clinical Pharmacology, 2020).

The Kd is a measure of binding affinity in units of concentration. One may read the Tmax as the time at which the peak concentration occurs.

Data set [1] in a line: Observed plasma PK in clinical studies. As to conditions: for geometric mean ratio of AC886 AUC0-24,ss to quizartinib AUC0-24,ss: noncompartmental analysis. It counts as in vivo, human.
The target of a further data set is FLT3 kinase. As to conditions: read-out: dissociation constant (Kd); cited from earlier work.
Data set [2] is described as follows: Population PK model of AC886. The format is in vivo, human.
The conditions of data set [3]: cited from earlier work.
For data set [4] the following is noted: cited from earlier work. The source holds these as a separate data set.
The nature of data set [5]: Population PK model of quizartinib. The format is in vivo, human.
The mark [6] stands for this setting: before relative F1 for patients was incorporated into the model.
Setting [7] is: interoccasion variability, occasion 1.
Setting [8] is: interoccasion variability, occasion 2.
Setting [9] is: interoccasion variability, occasion 3.
[10] abbreviates: interoccasion variability, occasion 4.

Take `CC(C)(CO)c1cc(NC(=O)Nc2ccc(-c3cn4c(n3)sc3cc(OCCN5CCOCC5)ccc34)cc2)no1` [AC886]: in data set [1] (patients from the QuANTUM-R study, multiple daily doses), the median accumulation ratio turned out to be 8.4. Also, the “geometric mean ratio of AC886 AUC0-24,ss to quizartinib AUC0-24,ss” value in data set [1] (study 2689-CL-2004, 30-mg cohort) is 0.544. In data set [1] (study 2689-CL-2004, 60-mg cohort), the “geometric mean ratio of AC886 AUC0-24,ss to quizartinib AUC0-24,ss” value worked out at 0.485. Moreover, the Kd at FLT3 kinase was 1.1 nM. Further, the “FMET (fraction of quizartinib converted to AC886)” value in data set [2] (FIXED, based on AUC ratio in phase 2 study) was 0.500. Further, the “effect of mild or moderate hepatic impairment on PK” value in data set [2] (based on baseline liver function values) is given as “no effect”. In addition, the “Magnitude of interindividual variability in Vcm” value in data set [2] (final estimate) is reported as 117% CV. Besides, in data set [2] (final model), the “increase in CLm with concomitant strong CYP3A inhibitor use” value turned out to be 10.6% and the “increase in Vcm with concomitant strong CYP3A inhibitor use” value came out at 192%. Besides, the “IIV in CLm in healthy volunteers” value in data set [2] (healthy volunteers) is 45.9% CV. Also, in data set [2] (patients with AML), the “IIV in CLm in patients” value came out at 64.1% CV. In addition, in data set [2] (population mean), the “CLm (apparent clearance for metabolite)” value was 4.09 L/h, the “CLm (fractional change in CLm for race black)” value is reported as 0.586, the “CLm (fractional change in CLm for strong CYP3A inhibitors)” value is given as 0.106 and the “CLm (power of BSA in CLm)” value is reported as 1.60. For the same compound, the “Vcm (fractional change in Vcm for strong CYP3A inhibitors)” value in data set [2] (population mean) came to 1.92.

For the compound `CCc1nc(C(N)=O)c(Nc2ccc(N3CCC(N4CCN(C)CC4)CC3)c(OC)c2)nc1NC1CCOCC1` [gilteritinib], the “increase in exposure with strong CYP3A inhibitor itraconazole” value in data set [3] is “approximately 2.2 fold”. Also, the “decrease in exposure with strong CYP3A4 inducer rifampin” value in data set [3] (versus gilteritinib alone) is on record as 30%.

For the compound `CO[C@@H]1[C@H](N(C)C(=O)c2ccccc2)C[C@H]2O[C@]1(C)n1c3ccccc3c3c4c(c5c6ccccc6n2c5c31)C(=O)NC4` [midostaurin], in data set [3], the “decrease in exposure with CYP3A4 induction by rifampicin” value is given as > 10 fold and the “increase in exposure with CYP3A inhibition by ketoconazole” value is listed as > 10 fold.

As for `CC(C)(C)c1cc(NC(=O)Nc2ccc(-c3cn4c(n3)sc3cc(OCCN5CCOCC5)ccc34)cc2)no1` [quizartinib], the Tmax in data set [1] (human, plasma, oral, observed Tmax, patients with AML) was ~2 h. Also, in data set [4] (drug-drug interaction study with ketoconazole or fluconazole), the “increase in quizartinib exposure by strong CYP3A inhibitors” value is listed as “approximately 2 fold”. In addition, in data set [4] (phase 1 study), the “effect of lansoprazole on bioavailability” value is given as “did not result in a meaningful change”. In data set [5] (setting [6]), the “increase in CL in patients with AML (initial characterization)” value is 75%, the “increase in Vc in patients with AML (initial characterization)” value was found to be 36% and the “increase in Vp1 in patients with AML (initial characterization)” value came out at 102%. In addition, in data set [5] (covariate test and sensitivity analysis), the “effect of eGFR on quizartinib CL” value was “No significant effect”. Moreover, in data set [5] (final estimate), the “Magnitude of interindividual variability in ALAG1” value is given as 62.0% CV, the “Magnitude of interindividual variability in CL” value is reported as 55.1% CV, the “Magnitude of interindividual variability in D1” value was 69.3% CV and the “Magnitude of interindividual variability in F1” value was 34.8% CV. Besides, in data set [5] (final estimate), the “Magnitude of interindividual variability in Ka” value is 38.5% CV, the “Magnitude of interindividual variability in Q1” value is 24.8% CV, the “Magnitude of interindividual variability in Vc” value is reported as 27.6% CV and the “Magnitude of interindividual variability in Vp1” value is 39.7% CV. For the same compound, in data set [5] (final model), the “decrease in CL with strong CYP3A inhibitor use” value came to 44.1%, the “increase in CL for patients with AML versus healthy volunteers” value stood at 8.2%, the “increase in F1 with strong CYP3A inhibitor use” value was 13.6% and the “reduction in bioavailability for patients with AML versus healthy volunteers” value was 40.1%. In addition, the Vd in data set [5] (human, plasma, oral) was determined as 194 L. In data set [5] (setting [7]), the “IOV in CL on occasion 1” value was 40.9% CV, the “IOV in F1 on occasion 1” value is 22.6% CV and the “IOV in Vc on occasion 1” value is recorded as 20.3% CV. In addition, in data set [5] (setting [8]), the “IOV in CL on occasion 2” value came to 40.9% CV and the “IOV in Vc on occasion 2” value is 20.3% CV. In data set [5] (setting [9]), the “IOV in CL on occasion 3” value is 40.9% CV, the “IOV in F1 on occasion 3” value was 22.6% CV and the “IOV in Vc on occasion 3” value was found to be 20.3% CV. Also, in data set [5] (setting [10]), the “IOV in CL on occasion 4” value amounted to 40.9% CV and the “IOV in Vc on occasion 4” value is on record as 20.3% CV. Besides, in data set [5] (population mean), the “ALAG1 (absorption lag time)” value is given as 0.205 h, the “CL (apparent clearance for parent)” value is 2.77 L/h, the “D1 (duration of zero-order input to depot compartment)” value was determined as 0.708 h and the “F1 (fractional change in F1 for strong CYP3A inhibitors)” value stood at 0.136. Further, in data set [5] (population mean), the “F1 (fractional change in study 019 F1 for fed)” value was determined as 0.0509, the “Q1 (exponent for BSA on Q1)” value was 0.970, the “Vc (exponent of [ALB/4.1] for Vc)” value is listed as −0.725 and the “Vc (exponent of [BSA/1.9] for Vc)” value was determined as 1.46. Also, in data set [5] (population mean), the “Vp1 (exponent for BSA on Vp1)” value is on record as 1.50 and the “Vp1 (exponent for age on Vp1)” value was found to be 0.453. Also, the “Ka (first-order absorption constant for healthy participants)” value in data set [5] (population mean, healthy participants) came to 0.874 h⁻¹. For the same compound, the “Ka (first-order absorption constant for patients)” value in data set [5] (population mean, patients with AML) was determined as 1.68 h⁻¹. The “Ka (fractional change in Ka for fed status [019 only])” value in data set [5] (population mean, study AC220-019, fed vs fasted) is −0.512. Further, in data set [5] (study AC220-019), the “decrease in ka under fed versus fasted conditions” value was 51.2% and the “increase in F1 under fed versus fasted conditions” value stood at 5.1%.
